The source of these data is PubChem BioAssay (NCI).

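The compound was tested at five concentrations on cells cultured in 96-well plates, with a 48-hour exposure period. GI50 = concentration required for 50% inhibition of growth. TGI marks complete inhibition of growth.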 Where a SMILES comes first, the peptide text is derived from it. [ ]: non-standard residue; d: D form. The star is where a group is joined. Cbz = O=C(OCc1ccccc1)*; Boc = CC(C)(C)OC(=O)*; Aib = CC(C)(N)C(=O)O; OBn = c1ccc(CO*)cc1; OtBu = CC(C)(C)O*; βAla = NCCC(=O)O A value given as a limit tells only on which side of the number the result lay.

Holding throughout (test): NCI-60 cell line screen, 48 h
For assay [1], the system named is CAKI-1 renal.
The subject of assay [2] is EKVX NSCLC.
The subject of assay [3] is HOP-92 NSCLC.
In assay [4] the test system is IGROV1 ovarian.
Assay [5] concerns MALME-3M melanoma.
The subject of assay [6] is MDA-MB-231 breast.
The subject of assay [7] is NCI-H460 lung.
Assay [8] deals with SF-539 CNS.
For assay [9], the system named is SK-MEL-28 melanoma.
The test system of assay [10] is SNB-75 CNS.

Take `COc1ccc(CNc2nc(NCc3ccc(OC)cc3)nc(N3CCOCC3)n2)cc1`: the TGI in assay [1] was 6.9 µM; in assay [2], more than 100 µM; in assay [3], more than 100 µM; in [4] it was more than 100 µM; in assay [5], 5.84 µM; in assay [6], more than 100 µM. Further, the TGI in [7] is more than 100 µM; in assay [8], 19.2 µM; in [9], more than 100 µM; in assay [10], more than 100 µM.

Turning to `O=C1C=CC(=O)c2ncccc21`, the TGI was found to be 4.02 µM in assay [1]; 9.86 µM in assay [2]; 3.25 µM in [3]; 17.6 µM in [4]; 9.78 µM in assay [5]; 8.06 µM in assay [6]. Also, the TGI was 17.5 µM in [7], 22.6 µM in assay [8], 11.2 µM in assay [9] and 17.2 µM in assay [10].

Turning to `CC(C)(C)OC(=O)N1C(OP(=O)(Oc2ccccc2)Oc2ccccc2)=COc2cccnc21`, the TGI in assay [1] is more than 100 µM; in assay [2], more than 100 µM; in [3], 92.5 µM; in assay [4], more than 100 µM; in [5] it was 98.2 µM; in assay [6] it was more than 100 µM. In addition, the TGI in assay [7] was 94 µM; in [8], more than 100 µM; in [9], more than 100 µM; in [10] it was more than 100 µM.

As to `CC(C)(C)OC(=O)CC(NC(=O)OC(C)(C)C)C(=O)NC(CCCCNC(=O)OCc1ccccc1)C(=O)NC(C)(C)C(=O)NCCC(=O)OCc1ccccc1` (stereo not given) (Boc-D(OtBu)K(Cbz)[Aib][βAla]-OBn; configuration not given here), the TGI in assay [1], in [2], in assay [3], in [4], in assay [5] and in [6] was more than 100 µM each time. Moreover, the TGI in assay [7], in assay [8], in [9] and in assay [10] was more than 100 µM each time.

As for `CCOP(=O)(OCC)C(Nc1ccc(F)cc1)c1cccc([N+](=O)[O-])c1` (stereo not given), the TGI in assay [1], in [2], in [3], in assay [4], in assay [5] and in [6] was more than 100 µM throughout. In addition, the TGI in assay [7], in [8], in assay [9] and in assay [10] was more than 100 µM in each case.

For the compound `CC1(C)C2CC(c3ccncc3)ON2C(C)(C)N1O` (stereo not given), the TGI in assay [1], in [2], in [3], in assay [4], in assay [5] and in assay [6] was more than 100 µM throughout. The TGI in [7], in assay [8], in assay [9] and in assay [10] was more than 100 µM each time.

As for `COc1ccc(-c2c(C#N)c(-c3ccccc3)n(NS(=O)(=O)c3ccccc3)c(=O)c2C#N)cc1`, the TGI in assay [1], in assay [2], in [3], in assay [4], in assay [5] and in assay [6] was more than 100 µM throughout. For the same compound, the TGI in assay [7], in [8], in assay [9] and in [10] was more than 100 µM throughout.

With `O=C(/C=C/c1ccc([N+](=O)[O-])cc1)c1nc2ccccc2[nH]1`, the TGI is more than 100 µM in [1]; more than 100 µM in [2]; more than 100 µM in assay [3]; 17.9 µM in [4]; more than 100 µM in assay [5]; more than 57.2 µM in [6]. In addition, the TGI is more than 100 µM in assay [7], more than 73.6 µM in assay [8], more than 100 µM in assay [9] and more than 100 µM in [10].

For `Cc1ccc2c(c1)OC1Nc3ccccc3C1=C2O` (stereo not given), the TGI in assay [1] was 97.5 µM; in [2] it was 86.9 µM; in [3] it was more than 100 µM; in [4], more than 100 µM; in [5] it was more than 100 µM; in assay [6] it was 69.4 µM. For the same compound, the TGI was 64.3 µM in assay [7], 44.4 µM in assay [8], more than 100 µM in assay [9] and more than 100 µM in assay [10].

With `COC1/C=C/C(C)C(C(C)C(OC)C(C)CCC(=O)C(C)C(CCC(=O)O)OC)OC(=O)/C=C/C=C(\C)CC(OC)CC2=CC(=O)O[C@@H](C(C)C(OC)CC(OC)/C=C/C(C)C(OC)C1)[C@H]2O` (stereo not given in full), the TGI in assay [1] is 0.934 µM; in assay [2] it was more than 5 µM; in assay [3], 1.36 µM; in assay [4], 0.948 µM; in [5], 2.94 µM; in assay [6] it was 1.78 µM. The TGI in assay [7] was more than 5 µM; in assay [8] it was more than 5 µM; in assay [9] it was more than 3.29 µM; in assay [10], 2.22 µM.

Regarding `COc1cccc(-c2nc3sccn3c2-c2ccnc(NCCNC(=O)Nc3cccc(C(F)(F)F)c3)n2)c1`, the GI50 is 3.5 µM in assay [1]; 3.55 µM in assay [2]; 853 nM in assay [3]; 3.32 µM in assay [4]; 3.86 µM in assay [5]; 3.47 µM in [6]. Besides, the GI50 in assay [7] was 2940 nM; in [8], 3.83 µM; in assay [9] it was 5.36 µM; in assay [10], 3.41 µM. Besides, the TGI was 10.3 µM in assay [1]; 59.6 µM in assay [2]; 9.47 µM in assay [3]; 21.8 µM in [4]; 26.8 µM in [5]; 12 µM in [6]. Also, the TGI in assay [7] worked out at 14.4 µM; in [8], 17.1 µM; in assay [9], 26.2 µM; in [10] it was 21.7 µM.

Consider `O=C1OS2(OCc3cccc4cccc2c34)c2ccccc21` (stereo not given), for which the TGI in [1], in assay [2], in [3], in assay [4], in assay [5] and in [6] was more than 100 µM each time. The TGI in assay [7], in [8], in [9] and in assay [10] was more than 100 µM in each case.
